According to patent US8828674B2, “Functional identification of proteins underlying Icrac activity in a cell” (The Queen's Medical Center, priority 2007, dated 2014):

Experiments:
[1] = target: CRACM1 (Homo sapiens, UniProt Q96D31); settings: without STIM1 overexpression
Protocol: (§1) To assess the functional properties of CRACM proteins, all three CRACM species were overexpressed in HEK293 cells. CRAC currents were measured in response to rapid Ca2+ store depletion by 20 μM inositol 1,4,5-trisphosphate (IP3) as well as following passive store depletion by perfusing cells with 20 mM BAPTA, which results in a slower store depletion that relies on Ca2+ leaking from stores. Full length human CRACM1 (accession no. NM_032790) and CRACM1-E106Q were subcloned as described. […] CRACM proteins were over-expressed in HEK293 cells stably expressing STIM1 using lipofectamine 2000 (Invitrogen) and the GFP expressing cells were selected by fluorescence.
(§2) Patch-clamp experiments were performed in the tight-seal whole-cell configuration at 21-25° C. […] Capacitive currents were determined and corrected before each voltage ramp. Extracting the current amplitude at −80 mV from individual ramp current records assessed the low-resolution temporal development of currents. […] In the experiments of FIG. 2, 10 mM EGTA was used and in FIG. 3, [Ca^2+]i was buffered to defined levels using 20 mM Cs-BAPTA and appropriate concentrations of CaCl2 as calculated with WebMaxC. […]

[2] = target: CRACM2 (Homo sapiens, UniProt Q96SN7); settings: 50 μM 2-APB
Sequence of CRACM2 (Q96SN7 whole entry): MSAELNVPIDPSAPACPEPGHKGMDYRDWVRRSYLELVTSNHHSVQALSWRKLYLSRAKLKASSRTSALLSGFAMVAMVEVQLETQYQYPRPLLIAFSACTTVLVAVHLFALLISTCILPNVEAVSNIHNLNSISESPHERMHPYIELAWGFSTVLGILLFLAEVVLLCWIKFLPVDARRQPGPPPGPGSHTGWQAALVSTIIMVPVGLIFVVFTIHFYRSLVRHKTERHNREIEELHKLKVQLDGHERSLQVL
Protocol: as §1, §2

[3] = target: T1, CRACM3 (Homo sapiens, UniProt Q9BRQ5)
Protocol: as §1, with “described. Full length human CRACM2 (accession no. NM_032831) and CRACM3 (accession no. NM_152288) were amplified from cDNAs (purchased from Origene) using high fidelity Pfu Ultra High Fidelity polymerase (Stratagene) and subcloned into pCAGGS-IRES-GFP vector.” for “described.”
(§3) Patch-clamp experiments were performed in the tight-seal whole-cell configuration at 21-25° C. High-resolution current recordings were acquired using the EPC-9 (HEKA). Voltage ramps of 50 ms duration spanning a range of −150 to +150 mV were delivered from a holding potential of 0 mV at a rate of 0.5 Hz over a period of 100-300 sec. All voltages were corrected for a liquid junction potential of 10 mV. Currents were filtered at 2.9 kHz and digitized at 100 μs intervals. Capacitive currents were determined and corrected before each voltage ramp. Extracting the current amplitude at −80 mV from individual ramp current records assessed the low-resolution temporal development of currents. Where applicable, statistical errors of averaged data are given as means± S.E.M. with n determinations. Standard external solutions were as follows (in mM): 120 NaCl, 2 MgCl2, 10 CaCl2, 10 TEA-Cl, 10 HEPES, 10 glucose, pH 7.2 with NaOH, 300 mOsm. In some experiments, Na^+-free solutions were applied, where NaCl was replaced equimolarly by tetraethylammonium-chloride (TEA-Cl). For Ca^2+-free external solutions CaCl2 was omitted, but Mg^2+ was retained. The divalent-free external solution (DVF) was based on the standard external solution but in the absence of CaCl2 and MgCl2 and additionally supplemented with 10 mM EDTA. Divalent replacement solutions were based on the standard external solution but with 10 mM CaCl2 replaced by 10 mM BaCl2. […] Standard internal solutions were as follows (in mM): 120 Cs-glutamate, 20 Cs-BAPTA, 3 MgCl2, 10 HEPES, 0.02 IP3, pH 7.2 with CsOH, 300 mOsm. In the experiments of FIG. 2, 10 mM EGTA was used and in FIG. 3, [Ca^2+]i was buffered to defined levels using 20 mM Cs-BAPTA and appropriate concentrations of CaCl2 as calculated with WebMaxC. For passive-depletion experiments, IP3 was omitted from the internal solution. All chemicals were purchased from Sigma-Aldrich Co.
Normally, CRAC currents are highly Ca^2+-selective and poorly permeable to K^+ or Cs^+, resulting in positive reversal potentials.
The monovalent versus divalent cation permeation was investigated in ion substitution experiments, where either Ca^2+ was removed from the extracellular solution or Na^+ was replaced by TEA.

[4] = target: T1, CRACM3; remark: listed apart in the source
Protocol: Patch-clamp experiments were performed in the tight-seal whole-cell configuration at 21-25° C. High-resolution current recordings were acquired using the EPC-9 (HEKA). Voltage ramps of 50 ms duration spanning a range of −150 to +150 mV were delivered from a holding potential of 0 mV at a rate of 0.5 Hz over a period of 100-300 sec. All voltages were corrected for a liquid junction potential of 10 mV. Currents were filtered at 2.9 kHz and digitized at 100 μs intervals. Capacitive currents were determined and corrected before each voltage ramp. Extracting the current amplitude at −80 mV from individual ramp current records assessed the low-resolution temporal development of currents. Where applicable, statistical errors of averaged data are given as means± S.E.M. with n determinations. Standard external solutions were as follows (in mM): 120 NaCl, 2 MgCl2, 10 CaCl2, 10 TEA-Cl, 10 HEPES, 10 glucose, pH 7.2 with NaOH, 300 mOsm. In some experiments, Na^+-free solutions were applied, where NaCl was replaced equimolarly by tetraethylammonium-chloride (TEA-Cl). For Ca^2+-free external solutions CaCl2 was omitted, but Mg^2+ was retained. […] In the experiments of FIG. 2, 10 mM EGTA was used and in FIG. 3, [Ca^2+]i was buffered to defined levels using 20 mM Cs-BAPTA and appropriate concentrations of CaCl2 as calculated with WebMaxC. […]

[5] = target: CRACM1-E106D (Homo sapiens, UniProt Q96D31, E106D)
Sequence of CRACM1-E106D (Q96D31 whole entry E106D): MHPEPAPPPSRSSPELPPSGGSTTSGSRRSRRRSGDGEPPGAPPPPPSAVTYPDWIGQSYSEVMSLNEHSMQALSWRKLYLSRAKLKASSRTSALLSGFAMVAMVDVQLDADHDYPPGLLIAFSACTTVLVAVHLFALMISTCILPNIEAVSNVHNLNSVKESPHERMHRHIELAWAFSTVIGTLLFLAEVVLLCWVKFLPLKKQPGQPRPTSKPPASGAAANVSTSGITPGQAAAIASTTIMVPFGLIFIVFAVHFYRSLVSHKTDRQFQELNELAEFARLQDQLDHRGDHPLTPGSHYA
Protocol: as §3

[6] = target: CRACM1-E190A (Homo sapiens, UniProt Q96D31, E190A)
Sequence of CRACM1-E190A (Q96D31 whole entry E190A): as the sequence (Q96D31 whole entry E106D) above, with D106E, E190A counted along it
Protocol: as §3

[7] = 50 μM 2-APB, 0 Ca Sodium Ringer

Sequence of CRACM1 (Q96D31 whole entry): as the sequence (Q96D31 whole entry E106D) above, with D106E counted along it

NCCOB(c1ccccc1)c1ccccc1 [2-APB, 2-aminoethoxydiphenyl borate]
Store- and STIM1-independent gating of wild-type CRACM1 by 2-APB [1]: largely resistant
Sensitivity of CRACM2 to 2-APB-mediated inhibition (versus CRACM1) [2]: significantly less sensitive
Change of outward current on 2-APB application in Ca2+-free extracellular solution [3, 7]: nearly tripled
Reduction of average inward current on 2-APB application in Ca2+-free extracellular solution versus Ca2+-containing solutions [3, 7]: 53%
Reversal potential with 2-APB in Ca2+-free extracellular solution ([3]; 50 μM 2-APB, 0 Ca Sodium Ringer, shift from +94 mV): +10 mV
Effect of replacing extracellular Na+ with TEA+ on inward or outward currents induced by 2-APB ([3]; 50 μM 2-APB, 10 mM Ca TEA Ringer): no significant effect
Reversal potential after 2-APB application, internal K+ ([3]; 50 μM 2-APB, IP3, K+-based internal solution): 29 mV
Average 2-APB-mediated current compared to CRACM3 currents without STIM1 overexpression ([3]; 50 μM 2-APB, STIM1 cells with CRACM3): approximately twice as large
Reversal potential with 2-APB in 10Ca/TEA Ringer ([3]; 50 μM 2-APB, red I/V of FIG. 6G): +30 mV
Permeability ratio PCs/PCs in presence of 2-APB ([3]; Goldman-Hodgkin-Katz analysis, 10Ca/TEA Ringer (red I/V), +30 mV): 50
Permeability ratio PNs/PCs in presence of 2-APB ([3]; Goldman-Hodgkin-Katz analysis, Ca2+-free conditions, Erev=+10 mV): 1.5
Permeability ratio PCa/PNa in presence of 2-APB ([3]; Goldman-Hodgkin-Katz analysis, normally in excess of 100-fold): 33
Current with 2-APB administered intracellularly ([4]; 50 μM 2-APB in pipette solution, [Ca2+]i ~150 nM): no store-operated or 2-APB induced current was elicited
Reversal potential of the 2-APB-evoked CRACM3 current ([4]; 50 μM 2-APB, CRACM3 alone, FIG. 6D): +30 mV
Response of CRACM1-E106D expressed alone to 2-APB ([5]; 50 μM 2-APB, [Ca2+]i 150 nM, no STIM1): rapid increase in inward current, followed by complete block, and a slow reactivation
Reversal potential of the reactivated current after 2-APB ([5]; CRACM1-E106D alone, +16 mV for the mutant without 2-APB): 0 mV
Response of CRACM1-E190A co-expressed with STIM1 to 2-APB ([6]; 50 μM 2-APB after IP3-induced CRAC currents fully activated): large facilitation followed by rapid inhibition
Response of CRACM1-E190A expressed alone, without STIM1, to 2-APB ([6]; 50 μM 2-APB, wild-type HEK293, no IP3, [Ca2+]i ~150 nM): large, transient increase in both inward and outward current
Reversal potential of the 2-APB-facilitated current ([6]; CRACM1-E190A with STIM1, 50 μM 2-APB, +55 mV before 2-APB): +33 mV
